Source: the NIST ThermoML archive (doi:10.1016/j.jct.2015.08.014)

Assay: xn = mol fraction of the nth substance listed
Conditions: 303.15 K, 100 kPa, Liquid, Alternating current cell with electrodes

CCCC[N+]1(C)CCCC1.N#CN=C=[N-] [1-butyl-1-methylpyrrolidinium dicyanamide] + O=C1CCCO1
Conditions | electrical conductivity [S/m]
Frequency=0.00347222 MHz, x1 = 0.4985 | 2.33
Frequency=0.00347222 MHz, x1 = 0.6954 | 1.912
Frequency=0.00347222 MHz, x1 = 0.9013 | 1.607
Frequency=0.00347222 MHz, x1 = 1 | 1.527
Frequency=0.004 MHz, x1 = 0.0463 | 1.58
Frequency=0.004 MHz, x1 = 0.0987 | 2.38
Frequency=0.004 MHz, x1 = 0.1449 | 2.71
Frequency=0.004 MHz, x1 = 0.1859 | 2.9
Frequency=0.004 MHz, x1 = 0.2493 | 2.85
Frequency=0.004 MHz, x1 = 0.3029 | 2.79
Frequency=0.004 MHz, x1 = 0.3845 | 2.618
Frequency=0.004 MHz, x1 = 0.4985 | 2.33
Frequency=0.004 MHz, x1 = 0.6954 | 1.912
Frequency=0.004 MHz, x1 = 0.9013 | 1.607
Frequency=0.004 MHz, x1 = 1 | 1.527
Frequency=0.00446429 MHz, x1 = 0.0463 | 1.58
Frequency=0.00446429 MHz, x1 = 0.0987 | 2.38
Frequency=0.00446429 MHz, x1 = 0.1449 | 2.71
Frequency=0.00446429 MHz, x1 = 0.1859 | 2.9
Frequency=0.00446429 MHz, x1 = 0.2493 | 2.85
Frequency=0.00446429 MHz, x1 = 0.3029 | 2.79
Frequency=0.00446429 MHz, x1 = 0.3845 | 2.618
Frequency=0.00446429 MHz, x1 = 0.4985 | 2.33
Frequency=0.00446429 MHz, x1 = 0.6954 | 1.912
Frequency=0.00446429 MHz, x1 = 0.9013 | 1.608
Frequency=0.00446429 MHz, x1 = 1 | 1.527
Frequency=0.005 MHz, x1 = 0.0463 | 1.58
Frequency=0.005 MHz, x1 = 0.0987 | 2.38
Frequency=0.005 MHz, x1 = 0.1449 | 2.71
Frequency=0.005 MHz, x1 = 0.1859 | 2.9
Frequency=0.005 MHz, x1 = 0.2493 | 2.85
Frequency=0.005 MHz, x1 = 0.3029 | 2.79
Frequency=0.005 MHz, x1 = 0.3845 | 2.618
Frequency=0.005 MHz, x1 = 0.4985 | 2.33
Frequency=0.005 MHz, x1 = 0.6954 | 1.912
Frequency=0.005 MHz, x1 = 0.9013 | 1.608
Frequency=0.005 MHz, x1 = 1 | 1.527
Frequency=0.005454 MHz, x1 = 0.0463 | 1.58
Frequency=0.005454 MHz, x1 = 0.0987 | 2.38
Frequency=0.005454 MHz, x1 = 0.1449 | 2.71
Frequency=0.005454 MHz, x1 = 0.1859 | 2.9
Frequency=0.005454 MHz, x1 = 0.2493 | 2.86
Frequency=0.005454 MHz, x1 = 0.3029 | 2.79
Frequency=0.005454 MHz, x1 = 0.3845 | 2.619
Frequency=0.005454 MHz, x1 = 0.4985 | 2.33
Frequency=0.005454 MHz, x1 = 0.6954 | 1.912
Frequency=0.005454 MHz, x1 = 0.9013 | 1.608
Frequency=0.005454 MHz, x1 = 1 | 1.527
Frequency=0.006 MHz, x1 = 0.0463 | 1.58
Frequency=0.006 MHz, x1 = 0.0987 | 2.38
Frequency=0.006 MHz, x1 = 0.1449 | 2.71
Frequency=0.006 MHz, x1 = 0.1859 | 2.9
Frequency=0.006 MHz, x1 = 0.2493 | 2.86
Frequency=0.006 MHz, x1 = 0.3029 | 2.79
Frequency=0.006 MHz, x1 = 0.3845 | 2.619
Frequency=0.006 MHz, x1 = 0.4985 | 2.33
Frequency=0.006 MHz, x1 = 0.6954 | 1.912
Frequency=0.006 MHz, x1 = 0.9013 | 1.608
Frequency=0.006 MHz, x1 = 1 | 1.527
Frequency=0.00652174 MHz, x1 = 0.0463 | 1.58
Frequency=0.00652174 MHz, x1 = 0.0987 | 2.38
Frequency=0.00652174 MHz, x1 = 0.1449 | 2.71
Frequency=0.00652174 MHz, x1 = 0.1859 | 2.9
Frequency=0.00652174 MHz, x1 = 0.2493 | 2.86
Frequency=0.00652174 MHz, x1 = 0.3029 | 2.79
Frequency=0.00652174 MHz, x1 = 0.3845 | 2.619
Frequency=0.00652174 MHz, x1 = 0.4985 | 2.33
Frequency=0.00652174 MHz, x1 = 0.6954 | 1.913
Frequency=0.00652174 MHz, x1 = 0.9013 | 1.608
Frequency=0.00652174 MHz, x1 = 1 | 1.527
Frequency=0.00694444 MHz, x1 = 0.0463 | 1.58
Frequency=0.00694444 MHz, x1 = 0.0987 | 2.38
Frequency=0.00694444 MHz, x1 = 0.1449 | 2.71
Frequency=0.00694444 MHz, x1 = 0.1859 | 2.901
Frequency=0.00694444 MHz, x1 = 0.2493 | 2.86
Frequency=0.00694444 MHz, x1 = 0.3029 | 2.79
Frequency=0.00694444 MHz, x1 = 0.3845 | 2.619
Frequency=0.00694444 MHz, x1 = 0.4985 | 2.33
Frequency=0.00694444 MHz, x1 = 0.6954 | 1.913
Frequency=0.00694444 MHz, x1 = 0.9013 | 1.608
Frequency=0.00694444 MHz, x1 = 1 | 1.527
Frequency=0.0075 MHz, x1 = 0.0463 | 1.58
Frequency=0.0075 MHz, x1 = 0.0987 | 2.38
Frequency=0.0075 MHz, x1 = 0.1449 | 2.71
Frequency=0.0075 MHz, x1 = 0.1859 | 2.901
Frequency=0.0075 MHz, x1 = 0.2493 | 2.86
Frequency=0.0075 MHz, x1 = 0.3029 | 2.79
Frequency=0.0075 MHz, x1 = 0.3845 | 2.619
Frequency=0.0075 MHz, x1 = 0.4985 | 2.33
Frequency=0.0075 MHz, x1 = 0.6954 | 1.913
Frequency=0.0075 MHz, x1 = 0.9013 | 1.608
Frequency=0.0075 MHz, x1 = 1 | 1.527
Frequency=0.008 MHz, x1 = 0.0463 | 1.58
Frequency=0.008 MHz, x1 = 0.0987 | 2.38
Frequency=0.008 MHz, x1 = 0.1449 | 2.71
Frequency=0.008 MHz, x1 = 0.1859 | 2.902
Frequency=0.008 MHz, x1 = 0.2493 | 2.86
Frequency=0.008 MHz, x1 = 0.3029 | 2.79
Frequency=0.008 MHz, x1 = 0.3845 | 2.62
Frequency=0.008 MHz, x1 = 0.4985 | 2.33
Frequency=0.008 MHz, x1 = 0.6954 | 1.913
Frequency=0.008 MHz, x1 = 0.9013 | 1.608
Frequency=0.008 MHz, x1 = 1 | 1.527
Frequency=0.00857143 MHz, x1 = 0.0463 | 1.58
Frequency=0.00857143 MHz, x1 = 0.0987 | 2.38
Frequency=0.00857143 MHz, x1 = 0.1449 | 2.71
Frequency=0.00857143 MHz, x1 = 0.1859 | 2.902
